What all share (test): Competition binding: inhibition of WK(FITC)YMVm binding to FPR2 (wild type and mutants), HEK293F cells
The target in experiment [1] is T1, FPR2 (Homo sapiens, UniProt P25090, L272W).
T1 construct: expressed in transfected cells; host or cells: HEK293F cells, pTT5 vector
T1 sequence (P25090 1-351 L272W): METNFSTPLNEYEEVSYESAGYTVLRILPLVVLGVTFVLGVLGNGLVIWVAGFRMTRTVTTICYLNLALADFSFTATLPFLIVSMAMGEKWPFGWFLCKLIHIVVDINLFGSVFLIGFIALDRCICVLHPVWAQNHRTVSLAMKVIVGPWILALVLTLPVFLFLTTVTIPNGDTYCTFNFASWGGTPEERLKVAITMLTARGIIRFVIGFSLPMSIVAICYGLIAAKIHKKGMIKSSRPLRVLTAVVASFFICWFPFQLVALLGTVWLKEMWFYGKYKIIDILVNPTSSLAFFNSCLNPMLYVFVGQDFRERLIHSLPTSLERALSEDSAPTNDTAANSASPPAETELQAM
As to conditions: FPR2 L272W, mean ± SEM. The protocol: (§1) The genes of wild-type FPR1 and FPR2 and mutants with a Flag tag at the N termini were cloned into pTT5 vector (Invitrogen) and expressed in HEK293F cells (Invitrogen). Cells were harvested 48 h post transfection with 1 μg ml^−1 plasmid. Cell-surface expression of the receptors was measured by mixing 10 μl cells with 15 μl of TBS buffer supplemented with 4% BSA, 20% (v/v) viability-staining solution 7-AAD (Invitrogen, Cat#00-6993-50), and 0.1% (v/v) anti-FLAG M2-FITC antibody (Sigma, Cat#F4049) at 4 °C for 20 min. After incubation, 175 μl of TBS buffer was added and the fluorescent signal was measured using a flow-cytometry reader (Guava easyCyte HT, Millipore). Then, the cells were washed and resuspended to a final concentration of 1 × 10^6 cells per ml in Hanks’ Balanced Salt Solution (HBSS) buffer supplemented with 0.5% bovine serum albumin (BSA) and 20 mM HEPES, pH 7.4.
(§2) The mean fluorescent intensity of each well was then read by the FCM reader. Total binding and nonspecific binding were measured in the absence and presence of the unlabeled ligand (200 μM WKYMVm), respectively. […] Mean fluorescent-intensity values were measured by flow cytometry. Data were analyzed using Prism 8.0 (GraphPad software).

Experiment [2] deals with T2, FPR2 (Homo sapiens, UniProt P25090, M85K).
T2 construct: expressed in transfected cells; host or cells: HEK293F cells, pTT5 vector
T2 sequence (P25090 1-351 M85K): T1 sequence (P25090 1-351 L272W) with M85K, W272L
To be noted: FPR2 M85K, mean ± SEM. As for the experimental part: as §1, §2

Experiment [3] concerns the target T3, FPR2 (Homo sapiens, UniProt P25090, L198W).
T3 construct: expressed in transfected cells; host or cells: HEK293F cells, pTT5 vector
T3 sequence (P25090 1-351 L198W): T1 sequence (P25090 1-351 L272W) with L198W, W272L
As to conditions: FPR2 L198W, mean ± SEM. As for the experimental part: as §1, §2

The target in experiment [4] is T4, FPR2 (Homo sapiens, UniProt P25090, E89G).
T4 construct: expressed in transfected cells; host or cells: HEK293F cells, pTT5 vector
T4 sequence (P25090 1-351 E89G): T1 sequence (P25090 1-351 L272W) with E89G, W272L
To be noted: FPR2 E89G, mean ± SEM. The protocol:
as §1, §2

The target of experiment [5] is T5, FPR2 (Homo sapiens, UniProt P25090, E89A).
T5 construct: expressed in transfected cells; host or cells: HEK293F cells, pTT5 vector
T5 sequence (P25090 1-351 E89A): T1 sequence (P25090 1-351 L272W) with E89A, W272L
To be noted: FPR2 E89A, mean ± SEM. As for the experimental part:
as §1, §2

Experiment [6] has as its target T6, FPR2 (Homo sapiens, UniProt P25090, S211L).
T6 construct: expressed in transfected cells; host or cells: HEK293F cells, pTT5 vector
As to conditions: FPR2 Construct 2, mean ± SEM. As for the experimental part:
as §1, §2

Substitutions are numbered along the chain they refer to.

Usually Ki stands for the dissociation constant of the complex between target and ligand, obtained from inhibition or displacement. Low readings indicate tighter binding, high ones weaker binding.

T6 sequence (P25090 with tags, fused parts or gaps S211L): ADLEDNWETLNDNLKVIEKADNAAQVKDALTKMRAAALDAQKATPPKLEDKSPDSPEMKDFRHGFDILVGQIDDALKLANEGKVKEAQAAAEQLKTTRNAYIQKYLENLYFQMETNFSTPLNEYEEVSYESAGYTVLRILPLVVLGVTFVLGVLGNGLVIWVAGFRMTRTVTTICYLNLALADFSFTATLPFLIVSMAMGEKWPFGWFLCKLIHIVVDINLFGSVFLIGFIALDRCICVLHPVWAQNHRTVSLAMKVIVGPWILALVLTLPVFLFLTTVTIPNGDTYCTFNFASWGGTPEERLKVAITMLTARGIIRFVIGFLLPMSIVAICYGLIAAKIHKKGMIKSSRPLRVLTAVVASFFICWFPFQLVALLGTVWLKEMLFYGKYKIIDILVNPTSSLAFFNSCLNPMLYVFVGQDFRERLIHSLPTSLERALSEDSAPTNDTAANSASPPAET

On to `CC[C@H](C)[C@H](NC(=O)[C@H](CCC(=O)O)NC(=O)[C@H](CO)NC(=O)[C@@H](NC(=O)[C@H](CC(C)C)NC(=O)[C@H](CC(C)C)NC(=O)[C@H](CC(C)C)NC(=O)[C@H](CC(C)C)NC(=O)[C@H](CS)NC(=O)[C@H](CO)NC(=O)[C@H](Cc1ccccc1)NC(=O)CNC(=O)[C@H](CCCNC(=N)N)NC(=O)[C@@H]1CCCN1C(=O)[C@H](C)NC(=O)[C@H](CCSC)NC=O)[C@@H](C)O)C(=O)N[C@@H](CC(=O)O)C(=O)N[C@@H](CC(C)C)C(=O)N1CCC[C@H]1C(=O)N[C@H](C(=O)N[C@@H](CCCCN)C(=O)N[C@@H](CCCNC(=N)N)C(=O)N[C@@H](CCCNC(=N)N)C(=O)N[C@@H](C)C(=O)O)C(C)C` [fHN, N-formyl humanin], for which the Ki on FPR2 [1] is 0.479 µM; at FPR2 [2] it was 0.309 µM; at FPR2 [3], 0.646 µM; at FPR2 [4] it was 0.575 µM; at FPR2 [5], 2.24 µM; on FPR2 [6], 0.525 µM.
